Experimental data reported in patent publication US6620805B1, “Delivery of nucleic acids by porphyrins” (Yale University, priority 1996, dated 2003).
Like-named read-outs stand apart in the source and are kept apart here.

Legend:
HepG2 2.2.15 cells [1] = conditions: 5 μg oligo A, 4 h; for cellular delivery compared with TMP: 0-300 μg porphyrin
Protocol: HepG2 2.2.15 cells were set up in 96 well plates as above. […] Complexes were added to the cultures and incubated at 37° C. for 4 h. The monolayers were washed three times with PBS and cells were lysed and counted as previously described.

oligo A [2] = experiment: Carboxymethyl (CM) ion exchange column binding of labelled oligo to cationic porphyrin; conditions: for porphyrin required for complete binding (saturation) of 60 μg oligo: 60 μg oligo A, 150 mM NaCl, 30 min room temperature, column binding assay
oligo A [3] = conditions: 2.4 μg TMP, 150 mM NaCl
From the text: The interaction of nucleic acids with water soluble porphyrins can easily be followed by measuring the absorbance spectrum of the porphyrin in the range 350-450 nm. Porphyrins have a characteristic Soret peak in this wavelength range. […] Spectra were taken over the range 300-500 nm and the wavelength of the Soret peak plotted against the mass of EGS.

HepG2 2.2.15 cells [4] = experiment: Delivery of TMP-complexed oligo to hepatoma cells in culture (cell-associated radioactivity); type: cell-based, human
Protocol: The complexed oligo was delivered to the cell cultures (6 replicates per variable), samples were removed for measurement of delivered radioactivity cpm and the cultures were returned to a 37° C. incubator for 4 h. Cultures were washed three times with 100 μl PBS and cells were lysed with SDS lysis buffer for extraction of nucleic acids (0.5% SDS, 10 mM Tris HCl pH 7.4, 10 mM EDTA, 10 mM NaCl, […] proteinase K). Lysates were counted to determine cell-associated radioactivity and nucleic acids were extracted from the lysate by phenol-chloroform treatment and ethanol precipitation.

hepatoma cells = experiment: Timecourse of binding/uptake of TMP-delivered oligo to hepatoma cells; type: cell-based, human; conditions: 30 μg TMP and 10 μg oligo A
Protocol: A timecourse experiment was carried out to determine the kinetics of binding/uptake of TMP-delivered oligonucleotides to hepatoma cells. […] A control timecourse was prepared without a delivery vehicle. Nucleic acids were recovered from one set of wells and were purified and analysed as described above.

HepG2 2.2.15 cells [5] = experiment: Fluorescence microscopy of delivered fluorescent oligo; type: cell-based, human; conditions: 100 μg fluorescent oligo, with 100 μg TMP or free, 1.5 h and 4 h
Protocol: A 30 mer oligo containing a 5′ fluorescein isothiocyanate molecule was synthesised, oligo C. Sterile glass coverslips were placed into the wells of 6-well plates and HepG2 2.2.15 cells were seeded into the wells at 5×10^4 cells/well. […] After 1.5 h and 4 h the coverslips were removed from the wells, dipped five times in PBS to remove excess oligo and were fixed in 4% formaldehyde in PBS. The coverslips were mounted in Slowfade (Molecular Probes, Inc.), and viewed on a Nikon Diaphot fluorescence microscope.

HepG2 2.2.15 cells [6] = experiment: Influence of serum on TMP delivery of EGS; type: cell-based, human; conditions: 30 μg TMP with 5 μg oligo A; 0, 4% or 10% serum; 4 h and 24 h
Protocol: Ninety-six well plates were set up as described above and allowed to grow until 80% confluence. Six replicate wells for each variable were washed twice with PBS. OPTI MEM (0 serum), 4% FCS in RPMI or 10% FCS in RPMI was added to the appropriate wells.
Oligo A was radiolabelled as above. These complexes were added to the wells (in replicates of 6) and after 4 h and 24 h the monolayers were washed 3 times with PBS. Cells were lysed as above and radioactivity counted.

[7] = 100 or 200 μg TMP with 100 μg oligo
Protocol: An internally-labelled Oligo A was prepared by kinasing a component oligo with ^33P ATP and ligating this shorter oligo to another short component cold oligo to form the full-length version. […] After 2 h and 24 h the mice were killed by cervical dislocation, weighed and their livers removed. Livers were weighed, homogenized and a small sample counted by liquid scintillation counting.

[8] = 200 μg oligo A with 100 μg TMP
Protocol: After 8 h and 24 h mice were sacrificed and their livers quickly immersed in OCT medium (Tissue-Tek) and frozen in liquid N2. Thin sections were cut and sections were mounted on glass slides. Localisation of EGS in the liver section was determined by hybridisation of a ^33P-labelled antisense oligonucleotide complementary to the EGS sequence, and overlaying with a photographic emulsion. Background hybridisation was determined using a ^33P-labelled oligo with the same sequence as the EGS.

HBV = experiment: Anti HBV activity in cell culture (extracellular HBV DNA by dot-blot); type: cell-based, Hepatitis B virus; conditions: TMP concentration corresponding to 100 nM EGS
Protocol: (§1) The human hepatoma cell line HepG2 2.2.15 containing four copies of the HBV genome was used in this study. Cells were plated out (2×10^4/well) into 96 well plates and left for 5 days until confluent. […] The various dilutions were added to the cell monolayers (6 replicates per concentration). Daily treatments were carried out for 5 days changing the medium each day. After the fifth day cell culture supernatant was removed and assayed for extracellular HBV DNA levels by dot-blot using the method of Korba B. E. and Gerin J. L. (Use of a standardized cell culture assay to assess activities of nucleoside analogs against Hepatitis B virus replication. (1992) Antiviral Research 19, 55-70).

9.5 kbp plasmid = conditions: 20 μg 9.5 kbp plasmid, 500 μg TMP
HepG2 2.2.15 = conditions: TMP concentration; 700 nM TMP: 100 nM EGS; daily treatments for 5 days
Protocol: as §1

Fe(III)-tetra-(N-methyl-4-pyridyl)-porphyrin chloride [Fe TMP]
cellular delivery compared with TMP (HepG2 2.2.15 cells [1]): does not affect cellular delivery by TMP up to a level of 30 μg | porphyrin amount giving maximal nucleic acid uptake (HepG2 2.2.15 cells [1]): 30 µg | influence of chelated Fe atom on nucleic acid binding (oligo A [2]; compared with TMP): behaved no differently than TMP alone

C[n+]1ccc(-c2c3nc(c(-c4cc[n+](C)cc4)c4ccc([nH]4)c(-c4cc[n+](C)cc4)c4nc(c(-c5cc[n+](C)cc5)c5ccc2[nH]5)C=C4)C=C3)cc1.Cc1ccc(S(=O)(=O)[O-])cc1.Cc1ccc(S(=O)(=O)[O-])cc1.Cc1ccc(S(=O)(=O)[O-])cc1.Cc1ccc(S(=O)(=O)[O-])cc1 [TMP, Meso-tetra(N-methyl-4 pyridyl)porphine Tetra Tosylate]
mass of oligo at saturation (Soret peak reached 440 nm) (oligo A [3]): approximately 3 μg | oligo delivered (HepG2 2.2.15 cells [4]; 1 μg delivered dose of oligo, 4 h): 0.5 µg | oligo delivered (HepG2 2.2.15 cells [4]; 5 μg delivered dose of oligo, 4 h): 2.8 µg | oligo delivered (HepG2 2.2.15 cells [4]; 10 μg delivered dose of oligo, 4 h): 4.8 µg | TMP amount at saturation of binding or uptake (HepG2 2.2.15 cells [4]; 1, 5 or 10 μg oligo A, 4 h): 30 µg | maximum oligo cell associated (HepG2 2.2.15 cells [4]; 3×10^4 cells): 4 to 5 µg | added dose cell-associated (HepG2 2.2.15 cells [4]; all oligo doses, 4 h): Approximately 50% | oligo cell-associated (hepatoma cells; 8 h timepoint): greater than 75% | change in cell-associated material after 24 h (hepatoma cells; 24 h): reduction in the material cell-associated | intracellular location of fluorescence (HepG2 2.2.15 cells [5]): All nuclei of the cells in the TMP-delivered fluorescent oligo cultures appeared brightly fluorescent | material cell-associated (HepG2 2.2.15 cells [6]): 50-70% | persistence of delivered oligo in the liver [7]: persisted for 24 h | tolerability in mice ([7]; tail vein): well tolerated | hybridisation signal in liver after 24 h ([8]; 24 h): level of signal is reduced after 24 h | intrahepatic distribution of EGS ([8]; tail vein, mice): substantial EGS present in all hepatocytes | antiviral activity of TMP (HBV): highly antiviral | plasmid bound to TMP (9.5 kbp plasmid): 5 µg | hepatic EGS levels over time (100 μg EGS with 20 μg TMP per mouse (lower TMP dose)): declined slightly over time | hepatic EGS levels over time (100 μg EGS with 100 μg TMP per mouse (higher TMP dose)): gradually increased | EGS level in kidney over time (100 μg EGS with 100 or 20 μg TMP per mouse, 2-72 h): rapid initial peak in the kidney which declined over 72 h | EGS levels in spleen, fat and serum (100 μg EGS with TMP, mice): negligible | enhancement with the higher TMP level (100 versus 20 μg TMP, same amount of EGS): two-fold | liver toxicity (mice, 100 μg EGS with 100 or 20 μg TMP): No liver toxicity was detected | concentration showing no toxicity (HepG2 2.2.15): less than 700 nM | porphyrin required for complete binding (saturation) of 60 μg oligo (oligo A [2]): 60 µg | stoichiometry of oligo:TMP at saturation (oligo A [2]; 30 mer oligo, charge neutralisation): 4 molecules of oligo interact with 29 molecules of TMP

C[N+](C)(C)c1ccc(-c2c3nc(c(-c4ccc([N+](C)(C)C)cc4)c4ccc([nH]4)c(-c4ccc([N+](C)(C)C)cc4)c4nc(c(-c5ccc([N+](C)(C)C)cc5)c5ccc2[nH]5)C=C4)C=C3)cc1 [TMA, meso tetra(trimethyl anilinium)porphine]
cellular delivery compared with TMP (HepG2 2.2.15 cells [1]): never as great as the TMP analogues | porphyrin amount giving maximal nucleic acid uptake (HepG2 2.2.15 cells [1]): 11 µg | porphyrin required for complete binding (saturation) of 60 μg oligo (oligo A [2]): approximately 100 μg
